Reference: patent publication US10159254B2, “Weed control methods” (Syngenta Participations AG, priority 2013, dated 2018)
Values joined by “and” are separate entries in the source; they are usually repeats but may differ in a detail not shown here. Equal values may be shown once.

Experiments:
[1] = tested on: common waterhemp (Amaranthus rudis); assay: Greenhouse weed control: HPPD inhibitors with or without Sequestrene 138Fe, common waterhemp; assay type: in vivo; conditions: common waterhemp control 17 DAT
Procedure: (§1) A greenhouse experiment is conducted to determine the effect of chelated iron on weed control in the greenhouse. Velvetleaf (Abutilon theophrasti) and common waterhemp (Amaranthus rudis) plants are grown in 4×4-inch pots filled with a greenhouse potting mix. When the plants reached the 2 to 3 inch height (2 to 3 leaf stage), they are sprayed with a reduced rate of an HPPD inhibitor alone or in a tank mix combination with Sequestrene 138Fe at 140 g/ha (equivalent to 8.4 g iron/hectare) or 280 g/ha (equivalent to 16.8 g iron/hectare). […] Observations on percent control are recorded 12, 19, and 25 days after treatment.
Effect of Tank Mix Applications of Various HPPD Inhibitors and Sequestrene 138Fe on Common Waterhemp Control. Injury Assessed 17 DAT
An experiment is performed to look at the effect of applying iron chelates on control of Common Waterhemp using HPPD-inhibiting herbicides. Experiment design is analogous to that outlined in Experiment 3 above.

[2] = tested on: tobacco line overexpressing Avena HPPD; assay: Transgenic tobacco herbicide damage, mesotrione with or without Sequestrene 138; assay type: in vivo, Nicotiana tabacum cv Samsun (tobacco)
Procedure: (§2) Effect of Iron Chelates in Mitigating Foliar Bleaching Injury from HPPD Inhibiting Herbicides Across Various Transgenic HPPD Tolerant Tobacco Events Over-expressing HPPD Genes from Different Origins
(§3) This experiment is carried out to determine whether iron chelates can mitigate the bleaching injury from HPPD inhibiting herbicides across various transgenic HPPD tolerant tobacco events over-expressing HPPD genes from different origins. These experiments are conducted using three distinct HPPD-overexpressing Nicotiana tabacum cv Samsun (tobacco) lines, one over-expressing wheat HPPD, one overexpressing an Avena HPPD and one over-expressing a HPPD from a bacterial source, Pseudomonas florescens. For each transgenic line, five identical clonal plants were sprayed with each herbicide treatment. Two untransformed clonal tobacco plants are also sprayed ([…]) with each herbicide treatment. Assessments are carried out 3, 7 and 14 days after herbicide application.
(§4) All scores represent average % herbicide damage. […] An equivalent safening effect is not observed when the same chemical treatments are applied to wild type plants.

[3] = tested on: tobacco line over-expressing HPPD from Pseudomonas florescens; assay: as above; assay type: in vivo, Nicotiana tabacum cv Samsun (tobacco)
Procedure: as §2, §3, §4

[4] = tested on: tobacco line over-expressing wheat HPPD; assay: as above; assay type: in vivo, Nicotiana tabacum cv Samsun (tobacco)
Procedure: as §2, §3, §4

[5] = tested on: Velvetleaf (Abutilon theophrasti); assay: Greenhouse weed control: HPPD inhibitors with or without Sequestrene 138Fe, velvetleaf; assay type: in vivo; conditions: percent velvetleaf control 19 DAT
Procedure: Effect of Tank Mix Applications of HPPD Inhibitors and Sequestrene® 138Fe on Velvetleaf Control. Percent Control Assessed 19 DAT
as §1

SYHT0H2 soybeans = assay: Greenhouse: tank-mix and sequential Sequestrene 138Fe, HPPD-inhibitor maximum injury; assay type: in vivo, soybean; conditions: mesotrione 420, bicyclopyrone 200, tembotrione 368 g ai/ha
Procedure: Effect of Tank-mix and Sequential Application of Sequestrene® 138 on Mesotrione (Applied as Callisto®)—Maximum Injury in SYHT0H2 Soybeans
An experiment is conducted in the greenhouse to determine the effect of chelated iron (Sequestrene 138Fe containing 6% iron) on HPPD-inhibitor injury to SYHT0H2 soybeans. Soybeans are grown in pots filled with a greenhouse potting mix. When the plants reach the V2-V3 stage, they are sprayed with an HPPD-inhibitor herbicide applied alone (Treatment 1), or in tank mixture with Sequestrene 138Fe (Treatment 2), or sequentially with Sequestrene 138Fe applied 1 day before the HPPD inhibitor (Treatment 3). Sequestrene 138Fe is applied at 2240 g/ha (equivalent to 134 g iron/ha). All treatments are applied with liquid ammonium sulfate @ 2.5% v/v and a non-ionic surfactant (NIS) @ 0.25% v/v in 150 L/ha water. Observations on percent injury are recorded 5, 11, or 22 days after treatment. Data presented are maximum injury observed during the trial.

[6] = Sequestrene 138Fe 0 g/ha, g ai/ha: mesotrione 26, isoxaflutole 26, bicyclopyrone 50, tembotrione 46, pyrasulfatole 22, topramezone 18
[7] = Sequestrene 138Fe 140 g/ha tank mix, mesotrione 26, isoxaflutole 26 g ai/ha

CS(=O)(=O)c1ccc(C(=O)C2C(=O)CCCC2=O)c([N+](=O)[O-])c1 [Mesotrione, mesotrione]
% Injury [1, 6]: 77%
% Injury [1, 7]: 78%
% herbicide damage ([2]; Trt 13: mesotrione 400 gai/ha alone, 3DAA): 55% and 45% and 50% and 60% and 40%
% herbicide damage ([2]; Trt 13: mesotrione 400 gai/ha alone, 7DAA): 70% and 65%
% herbicide damage ([2]; Trt 13: mesotrione 400 gai/ha alone, 14DAA): 65% and 45% and 50%
% herbicide damage ([2]; Trt 14: mesotrione 500 gai/ha alone, 3DAA): 55% and 60% and 65%
% herbicide damage ([2]; Trt 14: mesotrione 500 gai/ha alone, 7DAA): 75% and 70%
% herbicide damage ([2]; Trt 14: mesotrione 500 gai/ha alone, 14DAA): 70% and 65% and 60%
% herbicide damage ([2]; Trt 15: mesotrione 600 gai/ha alone, 7DAA): 55% and 75% and 78%
% herbicide damage ([2]; Trt 15: mesotrione 600 gai/ha alone, 14DAA): 40% and 65% and 50% and 70%
% herbicide damage ([2]; Trt 16: mesotrione 400 gai/ha + Sequestrene 138 1000 g/ha, 3DAA): 0% and 5% and 10%
% herbicide damage ([2]; Trt 16: mesotrione 400 gai/ha + Sequestrene 138 1000 g/ha, 7DAA): 15% and 10%
% herbicide damage ([2]; Trt 16: mesotrione 400 gai/ha + Sequestrene 138 1000 g/ha, 14DAA): 15% and 10% and 5%
% herbicide damage ([3]; Trt 2: mesotrione 100 gai/ha alone, 3DAA): 35% and 25% and 20%
% herbicide damage ([3]; Trt 2: mesotrione 100 gai/ha alone, 7DAA): 55% and 30% and 35%
% herbicide damage ([3]; Trt 2: mesotrione 100 gai/ha alone, 14DAA): 40% and 25% and 20% and 30%
% herbicide damage ([3]; Trt 4: mesotrione 50 gai/ha + Sequestrene 138 1000 g/ha, 7DAA): 0%
% herbicide damage ([3]; Trt 4: mesotrione 50 gai/ha + Sequestrene 138 1000 g/ha, 14DAA): 0%
% herbicide damage ([3]; Trt 5: mesotrione 100 gai/ha + Sequestrene 138 1000 g/ha, 3DAA): 10% and 5%
% herbicide damage ([3]; Trt 5: mesotrione 100 gai/ha + Sequestrene 138 1000 g/ha, 7DAA): 0%
% herbicide damage ([3]; Trt 6: mesotrione 150 gai/ha + Sequestrene 138 1000 g/ha, 3DAA): 5% and 15% and 10%
% herbicide damage ([3]; Trt 6: mesotrione 150 gai/ha + Sequestrene 138 1000 g/ha, 14DAA): 5% and 0%
% herbicide damage ([4]; Trt 7: mesotrione 200 gai/ha alone, 3DAA): 10% and 5%
% herbicide damage ([4]; Trt 7: mesotrione 200 gai/ha alone, 7DAA): 10% and 0%
% herbicide damage ([4]; Trt 7: mesotrione 200 gai/ha alone, 14DAA): 10% and 0%
% herbicide damage ([4]; Trt 8: mesotrione 300 gai/ha alone, 3DAA): 15% and 10%
% herbicide damage ([4]; Trt 9: mesotrione 400 gai/ha alone, 3DAA): 20% and 15%
% herbicide damage ([4]; Trt 9: mesotrione 400 gai/ha alone, 7DAA): 20% and 25%
% herbicide damage ([4]; Trt 10: mesotrione 200 gai/ha + Sequestrene 138 1000 g/ha, 3DAA): 0% and 5%
% herbicide damage ([4]; Trt 10: mesotrione 200 gai/ha + Sequestrene 138 1000 g/ha, 7DAA): 0%
% herbicide damage ([4]; Trt 11: mesotrione 300 gai/ha + Sequestrene 138 1000 g/ha, 3DAA): 0% and 5% and 10%
% herbicide damage ([4]; Trt 11: mesotrione 300 gai/ha + Sequestrene 138 1000 g/ha, 7DAA): 10% and 5% and 0%
% herbicide damage ([4]; Trt 12: mesotrione 400 gai/ha + Sequestrene 138 1000 g/ha, 3DAA): 10% and 0%
% herbicide damage ([4]; Trt 12: mesotrione 400 gai/ha + Sequestrene 138 1000 g/ha, 7DAA): 5% and 0%
% herbicide damage ([4]; Trt 12: mesotrione 400 gai/ha + Sequestrene 138 1000 g/ha, 14DAA): 10% and 5%
% Injury [5, 6]: 100%
% Injury [5, 7]: 100%
% Maximum Injury (SYHT0H2 soybeans; Sequestrene 138Fe 2240 g/ha applied 1 day before herbicide (Treatment 3, sequential)): 7%
% Maximum Injury (SYHT0H2 soybeans; herbicide alone (Treatment 1), maximum of 5, 11, 22 days after treatment): 20%
% Maximum Injury (SYHT0H2 soybeans; tank mix with Sequestrene 138Fe 2240 g/ha (Treatment 2, simultaneous)): 0%
